Key:
Set-up in all cases: species or system Human immunodeficiency virus 1
Protein Tat [1] = molecular target: T1, Protein Tat (Human immunodeficiency virus type 1 group M subtype B (isolate HXB2)(HIV-1), UniProt P04608); assay: In vitro binding affinity towards Tat/TAR to determine interaction between TAR RNA and Tat peptide at room temperature using fluorescence spectrophotometer
T1 sequence (P04608 whole entry): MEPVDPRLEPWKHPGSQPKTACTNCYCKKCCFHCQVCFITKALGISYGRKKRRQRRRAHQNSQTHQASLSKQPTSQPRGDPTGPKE

Protein Tat [2] = molecular target: T1, Protein Tat; assay: In vitro binding affinity towards Tat/TAR to determine interaction between TAR RNA and Tat peptide at room temperature using fluorescence spectrophotometer; nb denotes no binding
Protein Tat [3] = molecular target: T1, Protein Tat; assay: In vitro binding affinity towards Tat/TAR to determine interaction between TAR RNA and Tat peptide at room temperature using fluorescence spectrophotometer; mb denotes multiple binding

| SMILES | Kd (Protein Tat [1]) [µM] | also measured |
| --- | --- | --- |
| N=c1c(O)c(O)/c1=N\CCCC(N)COC(=O)NC(CCCN=C(N)N)COC(N)=O (configuration not stated) | 741 | – |
| NCCCC[C@H](COC(N)=O)NC(=O)CN(CCCCN)C(=O)OCCN | – | Kd (Protein Tat [2]): Not Active |
| N=C(N)NCCC[C@H](N)COC(=O)N(CCCCN)CC(=O)N[C@H](CCCCN)COC(N)=O | 1.8 | – |
| NCCCC[C@H](COC(N)=O)NC(=O)CN(CCCCN)C(=O)OC[C@@H](N)CCCN=C(N)N[N+](=O)[O-] | 952 | – |
| N=c1c(O)c(O)/c1=N\CCCC(N)COC(=O)NC(CCCCN)COC(N)=O (configuration not stated) | – | Kd (Protein Tat [2]): Not Active |
| N=c1c(O)c(O)/c1=N/CCC[C@H](N)COC(=O)N(CCCCN)CC(=O)N[C@H](CCCCN)COC(N)=O | 7.7 | – |
| NC(=O)OCCNC(=O)CNC(=O)OC[C@@H](N)CCCN=C(N)N | – | Kd (Protein Tat [3]): Multiple binding |
